Tests used:
Type in all cases: in vivo
[1] = test system: diamondback moth (Plutella xylostella); experiment: Insecticidal effect on diamondback moth (Test Example 1); details: diamondback moth; judged by the mortality criterion of Test Example 1
Procedure, shortened: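 Chinese cabbage seedlings carrying eggs laid by released adult moths were immersed in treatment, air-dried and held at 25° C. Hatched insects were counted six days after immersion, and mortality was calculated and scored against a fixed criterion. Three replicate groups of 10 insects were used.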

[2] = test system: common cutworm (Spodoptera Litura); experiment: Insecticidal effect on common cutworm (Test Example 2); details: 500 ppm; cabbage leaf immersed; second-instar larvae of common cutworm; eight days after inoculation; 25° C.
Procedure, shortened: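 2nd-instar larvae on air-dried treatment, closed dish, 25° C; dead/alive counted at day 8. Mortality calculated, graded by criterion. 3 × 10 insects.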

[3] = test system: rice leafroller (Cnaphalocrocis medinalis); experiment: Insecticidal effect on rice leafroller (Test Example 3); details: 500 ppm; rice lamina immersed; third-instar larvae of rice leafroller; four days after inoculation; 25° C., humidity 70%
Procedure, shortened: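 Groups of 10 third-instar larvae, in triplicate, are placed on air-dried lamina resting on wet filter paper. Incubation runs four days at 25° C with 70% humidity before survivors and dead are tallied.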

SMILES | Insecticidal effect, Test Example 1 [1] | Insecticidal effect, Test Example 2 [2] | Insecticidal effect, Test Example 3 [3]
Cc1cc(OC(F)(F)C(F)C(F)(F)F)ccc1NC(=O)c1c(Cl)cccc1C(=O)NC(C)C (stereo not drawn) [compound 242] | A (100) | B (99-90) | A (100)
Cc1cc(OC(F)(F)C(F)(Br)C(F)(F)F)ccc1NC(=O)c1c(Cl)cccc1C(=O)NC(C)C (stereo not drawn) [compound 243] | A (100) | A (100) | B (99-90)
Cc1cc(OC(F)(F)C(F)F)c(Cl)cc1NC(=O)c1c(Cl)cccc1C(=O)NC(C)C [compound 246] | A (100) | B (99-90) | B (99-90)
Cc1cc(Oc2ccc(C(F)(F)F)cn2)ccc1NC(=O)c1c(Cl)cccc1C(=O)NC(C)C [compound 249] | A (100) | D (79-50) | A (100)
CC(C)NC(=O)c1cccc(Cl)c1C(=O)Nc1ccc(OC(F)F)cc1C(F)(F)F [compound 253] | A (100) | A (100) | C (89-80)
CC(C)NC(=O)c1c(Br)cccc1C(=O)Nc1ccc(C(F)(F)F)cc1 [compound 261] | A (100) | A (100) | D (79-50)
Cc1c(Cl)cccc1NC(=O)c1cccc(Br)c1C(=O)NC(C)C [compound 266] | A (100) | A (100) | A (100)
Cc1cc(Cl)ccc1NC(=O)c1cccc(Br)c1C(=O)NC(C)C [compound 267] | A (100) | A (100) | A (100)
Cc1ccc(Cl)cc1NC(=O)c1cccc(Br)c1C(=O)NC(C)C [compound 268] | A (100) | A (100) | A (100)
Cc1c(Cl)ccc(NC(=O)c2cccc(Br)c2C(=O)NC(C)C)c1C [compound 269] | A (100) | A (100) | A (100)
Cc1ccc(NC(=O)c2cccc(Br)c2C(=O)NC(C)C)c(C)c1Cl [compound 270] | A (100) | A (100) | A (100)
CCc1cc(Cl)ccc1NC(=O)c1cccc(Br)c1C(=O)NC(C)C [compound 271] | A (100) | A (100) | A (100)
Cc1cc(Br)ccc1NC(=O)c1cccc(Br)c1C(=O)NC(C)C [compound 272] | A (100) | A (100) | A (100)
Cc1c(Br)ccc(NC(=O)c2cccc(Br)c2C(=O)NC(C)C)c1C [compound 273] | A (100) | D (79-50) | D (79-50)
Cc1cc(I)ccc1NC(=O)c1cccc(Br)c1C(=O)NC(C)C [compound 274] | A (100) | A (100) | A (100)
Cc1cc(F)ccc1NC(=O)c1cccc(Br)c1C(=O)NC(C)C [compound 275] | A (100) | D (79-50) | A (100)
CC(C)NC(=O)c1c(Br)cccc1C(=O)Nc1ccc(C(F)(F)F)cc1Cl [compound 276] | A (100) | A (100) | A (100)
Cc1cc(C(F)(F)F)ccc1NC(=O)c1cccc(Br)c1C(=O)NC(C)C [compound 277] | A (100) | A (100) | A (100)

SMILES | Insecticidal effect, Test Example 1 [1] | Insecticidal effect, Test Example 2 [2] | Insecticidal effect, Test Example 3 [3]
Cc1cc(C(F)(F)C(F)(F)F)ccc1NC(=O)c1cccc(Br)c1C(=O)NC(C)C [compound 278] | A (100) | A (100) | A (100)
Cc1cc(C(F)(F)C(F)(F)C(F)(F)F)ccc1NC(=O)c1cccc(Br)c1C(=O)NC(C)C [compound 279] | A (100) | A (100) | A (100)
COc1ccc(NC(=O)c2cccc(Br)c2C(=O)NC(C)C)c(C)c1 [compound 282] | A (100) | A (100) | A (100)
Cc1cc(OCC(F)(F)C(F)F)ccc1NC(=O)c1cccc(Br)c1C(=O)NC(C)C [compound 283] | A (100) | A (100) | A (100)
Cc1ccc(NC(=O)c2cccc(Br)c2C(=O)NC(C)C)c(C)c1OC(F)F [compound 284] | A (100) | A (100) | A (100)
COc1ccc(NC(=O)c2cccc(Br)c2C(=O)NC(C)C)c(C)c1C [compound 285] | A (100) | D (79-50) | A (100)
CC(C)NC(=O)c1c(Br)cccc1C(=O)Nc1ccc(OC(F)(F)F)cc1Cl [compound 286] | A (100) | A (100) | A (100)
CC(C)NC(=O)c1c(Br)cccc1C(=O)Nc1ccc(OC(F)(F)F)cc1Br [compound 287] | A (100) | A (100) | A (100)
Cc1cc(OC(F)F)ccc1NC(=O)c1cccc(Br)c1C(=O)NC(C)C [compound 288] | A (100) | A (100) | A (100)
Cc1cc(OC(F)(F)F)ccc1NC(=O)c1cccc(Br)c1C(=O)NC(C)C [compound 289] | A (100) | A (100) | A (100)
Cc1cc(OC(F)(F)Br)ccc1NC(=O)c1cccc(Br)c1C(=O)NC(C)C [compound 290] | A (100) | A (100) | A (100)
Cc1cc(OC(F)(F)C(F)C(F)(F)F)ccc1NC(=O)c1cccc(Br)c1C(=O)NC(C)C (stereo not drawn) [compound 291] | A (100) | A (100) | A (100)
Cc1cc(OC(F)(F)C(F)Cl)ccc1NC(=O)c1cccc(Br)c1C(=O)NC(C)C (stereo not drawn) [compound 292] | A (100) | A (100) | A (100)
Cc1cc(OC(F)(F)C(F)F)ccc1NC(=O)c1cccc(Br)c1C(=O)NC(C)C [compound 293] | A (100) | A (100) | A (100)
Cc1c(NC(=O)c2cccc(Br)c2C(=O)NC(C)C)ccc(OC(F)F)c1Cl [compound 294] | A (100) | A (100) | A (100)
CSc1ccc(NC(=O)c2cccc(Br)c2C(=O)NC(C)C)c(C)c1 [compound 296] | A (100) | A (100) | A (100)
Cc1cc(Oc2cccc(C(F)(F)F)c2)ccc1NC(=O)c1cccc(Br)c1C(=O)NC(C)C [compound 297] | A (100) | A (100) | B (99-90)

— patent publication US6362369B1, “Phthalic acid diamide derivatives fluorine-containing aniline compounds as starting material, agricultural and horticultural insecticides, and a method for application of the insecticides” (Nihon Nohyaku Co., Ltd., priority 1997, dated 2002)
